One assay deals with HCT-15 tumour sections. The experiment in a line: Immunofluorescence analysis of xenograft tumour sections. The format is in vivo, mice. Conditions: 80 mg/kg, 12 days, vs control vehicle. As for the experimental part: A, B: is a graphical representation of tumour volumes estimated periodically as indicated. Mice bearing established tumour xenografts using HCT15 or MDA-MB-231 cells were treated orally (PO) or intraperitoneally (IP) twice a day with the indicated doses of Compound 1 or Compound 16 for 12 or 15 days. Paclitaxel (PTX) was given intravenously at dose of 40 mg/kg, 3 times every 4 days. Error bars show ±S.D. from mean tumour volumes obtained from 6 mice. Student's t-test was performed to determine the statistical significance (*=p<0.005). C: is a bar graph showing quantification of cells (n>100 per condition) with misaligned chromosomes and multipolar mitotic-spindles. […] tumour sections treated with Compound 16 (80 mg/kg) or control vehicle for 12 days were stained with anti-β-tubulin antibodies and DAPI. The percentage of cells with misaligned chromosomes and multipolar mitotic-spindles was quantified and plotted with mean values±S.D.
To confirm the antimitotic efficacy of Compound 16 (b5) in vivo, immunofluorescence analysis of HCT-15 tumor sections treated with Compound 16 (80 mg/kg) or control vehicle for 12 days were stained with anti-β-tubulin antibodies and DAPI.

Assay [1] deals with caspase-3/7 activity in oncogene-transformed human fibroblast BJ cells. Briefly: Caspase-3/7 Glo assay. To be noted: 2.5 and 5 μM, 48 h. The format is cell-based. How it is done:
FIGS. 5B, C provide a representation of an immunoblot analysis to examine the PARP or caspase-3 cleavage (B) and a histogram showing Caspase-3/7 activities, plotted as fold induction compared to DMSO-treated cells (C). BJ normal and transformed cells were treated with Compound 1 (a131) for 48 h. Cells were harvested and total lysates were analysed by detecting cleaved PARP or caspase-3 or caspase-3/7 activities as markers for apoptotic induction. […] Student's t-test was performed to determine the statistical significance (**=p<0.001, ***=p<0.0001, n.s.=no significance).
Whether Compound 1 (a131)-induced cancer cell-lethality was mediated by apoptosis or non-apoptotic programmed cell death was determined. For this purpose, isogenic non-transformed and oncogene-transformed human fibroblast BJ cell lines were cultured in DMEM supplemented with 10% FBS. The cells were treated with Compound 1 (2.5 μM and 5 μM, DMSO). 48 h after treatment, total cell lysates were prepared for immunoblot analysis using antibodies against cleaved PARP and cleaved caspase-3, well-known markers for apoptosis. In addition, a fraction of total cell lysates was also subjected to Caspase-3/7 Glo (Promega) assay to measure the combined activity of caspase 3/7. This was determined using caspase-Glo 3/7 Assay Kit (Promega) and its activity was normalized to a number of viable cells as determined by MTT assay.

The test system of assay [2] is LC3 (LC3-II/LC3-I) in HeLa cells. The experiment in a line: Immunoblot analysis of LC3 in HeLa cells. The format is cell-based, human. Conditions: 0.625-10 μM, 6 h. As for the experimental part:
FIG. 1 is a diagrammatic representation of an immunoblot analysis showing the dual inhibition of the autophagic process and mitotic progression by Compound 1 (a131). HeLa cells were treated with the indicated μM concentration of Compound 1 (a131) or chloroquine for 6 h. Cells were harvested and total lysates were analysed by detecting the mitotic marker phospho-histone H3 at serine 10 (pH3 (Ser10)) and the autophagosome marker LC3. The band intensity ratios of LC3-II/LC3-I as compared to DMSO control (lane 1, 0 μM chloroquine, and lane 7, 0 μM a131) are indicated (Ratio). Antibodies raised against β-actin were used as an internal loading control.
The ability of Compound 1 to inhibit lysosome function was examined using immunoblotting. HeLa cervical cancer cells were cultured in Dulbecco's modified Eagle's medium (DMEM) supplemented with 10% Fetal Bovine Serum (FBS, Thermo Scientific). […]
Defects in lysosome function and inhibition of autophagy can be measured by accumulation of LC3-phosphatidylethanolamine conjugated non-soluble form (LC3-II), which are converted from soluble LC3-I. Thus, antibodies raised against LC3 (Cell Signaling, Cat#4108) were used to determine lysosomal function and integrity. […] The inhibitory ability of Compound 1 was also quantitatively compared to CQ.

The structures appear in SMILES notation.

As to `CN1CCN(CC(=O)n2cc(/C(C#N)=C/c3cccc4cnccc34)c3ccccc32)CC1` [Compound 16, (Z)-3-(isoquinolin-5-yl)-2-(1-(2-(4-methylpiperazin-1-yl)acetyl)-1H-indol-3-yl)acrylonitrile], the “cancer cells with misaligned chromosomes and multipolar mitotic-spindles” value with HCT-15 tumour sections is given as “significantly increased the number of cancer cells harbouring massively misaligned chromosomes with multipolar mitotic-spindles”.
For `N#C/C(=C\c1cccc2cnccc12)c1c[nH]c2ccccc12` [Compound 1, (Z)-2-(1H-indol-3-yl)-3-(isoquinolin-5-yl)acrylonitrile], the caspase-3/7 activity entry in assay [1] was “significant induction of caspase-3/7 activity”. Also, the “levels of LC3-II” value in assay [2] is reported as “markedly increased the levels of LC3-II”.

These data come from patent US10308631B2, “Selective anti-cancer compounds” (NATIONAL UNIVERSITY OF SINGAPORE, priority 2015, dated 2019).
